Where two headings read alike, the source gives them in different places.
Target: T1, CaV2.2 (Homo sapiens, UniProt Q00975)
T1 construct: expressed in transfected cells; host or cells: unnamed doxycycline-inducible cell line
Experiment: High-throughput CaV2.2/Kir2.3 FLIPR fluorescent assay
Assay type: cell-based
Conditions: Fluo-4 FLIPR, closed or inactivated state not stated
Procedure: Cells were plated in 384-well, clear-bottom, black-walled, poly-D-lysine coated plates (Becton Dickinson, Franklin Lake, N.J.) 2 days prior to use in the FLIPR assay. 100 μL of cells (1.4×10^6 cell/mL) containing doxycyline (Sigma-Aldrich, 1.5 μg/mL; to induce channel expression) were added to each well using a Multidrop (Thermo Scientific, Waltham, Mass.) and were maintained in 5% CO2 incubator at 37° C. On the morning of the assay, cells were transferred to a 5% CO2 incubator at 29° C.
Cells were washed with a wash buffer containing (in mM): 118 NaCl, 18.4 HEPES, 11.7 D-glucose, 2 CaCl2, 0.5 MgSO4, 4.7 KCl, 1.2 KH2PO4, pH adjusted to 7.2 with NaOH. 4.4 μM of the fluorescent indicator dye, Fluo-4 (Invitrogen), prepared in pluronic acid (Sigma-Aldrich), was loaded into the wells and incubated for 45 minutes at 29° C. in 5% CO2. Cells were then rinsed with either a 2 mM KCl closed-state buffer (in mM: 138.5 NaCl, 10 HEPES, 10 D-glucose, 1 CaCl2, and 2 KCl, with the pH adjusted to 7.4 with NaOH) when performing the closed-state assay or 12.5 mM KCl inactivated-state buffer (in mM: 128 NaCl, 10 HEPES, 10 D-glucose, 1 CaCl2, and 12.5 mM KCl, with the pH adjusted to 7.4 with NaOH) when performing the inactivated-state assay.
Calcium entry was evoked with an addition of 130 mM KCl stimulation buffer (in mM: 10.5 NaCl, 10 HEPES, 10 D-glucose, 1 CaCl2, and 130 KCl, with the pH adjusted to 7.4 with NaOH) for both the closed-state or inactivated-state assay. A change in the Fluo-4 fluorescence signal was assessed using FLIPR^TETRA™ instrument (Molecular Devices, Sunnyvale, Calif.) for 3 minutes following the elevation of extracellular KCl using an illumination wavelength of 470-495 nm with emissions recorded at 515-575 nm.
Concentration-dependent response curves were obtained by comparing the fluorescence signal in the presence of compound and fitted with a logistic function (1) to obtain the concentration that inhibited 50% (IC50) of the RLU signal using OriginPro v.7.5 software (OriginLab, Northampton, Mass.).
To assess the quality of the FLIPR assays the Z-factor (2) was used to quantify the suitability of the assay conditions using the following equation: […]
Data are expressed as mean and standard deviation (SD).

[1] = Table 5, read-out: FLIPR data CaV2.2
[2] = Table 4, read-out: FLIPR data CaV2.2

T1 sequence (Q00975 whole entry): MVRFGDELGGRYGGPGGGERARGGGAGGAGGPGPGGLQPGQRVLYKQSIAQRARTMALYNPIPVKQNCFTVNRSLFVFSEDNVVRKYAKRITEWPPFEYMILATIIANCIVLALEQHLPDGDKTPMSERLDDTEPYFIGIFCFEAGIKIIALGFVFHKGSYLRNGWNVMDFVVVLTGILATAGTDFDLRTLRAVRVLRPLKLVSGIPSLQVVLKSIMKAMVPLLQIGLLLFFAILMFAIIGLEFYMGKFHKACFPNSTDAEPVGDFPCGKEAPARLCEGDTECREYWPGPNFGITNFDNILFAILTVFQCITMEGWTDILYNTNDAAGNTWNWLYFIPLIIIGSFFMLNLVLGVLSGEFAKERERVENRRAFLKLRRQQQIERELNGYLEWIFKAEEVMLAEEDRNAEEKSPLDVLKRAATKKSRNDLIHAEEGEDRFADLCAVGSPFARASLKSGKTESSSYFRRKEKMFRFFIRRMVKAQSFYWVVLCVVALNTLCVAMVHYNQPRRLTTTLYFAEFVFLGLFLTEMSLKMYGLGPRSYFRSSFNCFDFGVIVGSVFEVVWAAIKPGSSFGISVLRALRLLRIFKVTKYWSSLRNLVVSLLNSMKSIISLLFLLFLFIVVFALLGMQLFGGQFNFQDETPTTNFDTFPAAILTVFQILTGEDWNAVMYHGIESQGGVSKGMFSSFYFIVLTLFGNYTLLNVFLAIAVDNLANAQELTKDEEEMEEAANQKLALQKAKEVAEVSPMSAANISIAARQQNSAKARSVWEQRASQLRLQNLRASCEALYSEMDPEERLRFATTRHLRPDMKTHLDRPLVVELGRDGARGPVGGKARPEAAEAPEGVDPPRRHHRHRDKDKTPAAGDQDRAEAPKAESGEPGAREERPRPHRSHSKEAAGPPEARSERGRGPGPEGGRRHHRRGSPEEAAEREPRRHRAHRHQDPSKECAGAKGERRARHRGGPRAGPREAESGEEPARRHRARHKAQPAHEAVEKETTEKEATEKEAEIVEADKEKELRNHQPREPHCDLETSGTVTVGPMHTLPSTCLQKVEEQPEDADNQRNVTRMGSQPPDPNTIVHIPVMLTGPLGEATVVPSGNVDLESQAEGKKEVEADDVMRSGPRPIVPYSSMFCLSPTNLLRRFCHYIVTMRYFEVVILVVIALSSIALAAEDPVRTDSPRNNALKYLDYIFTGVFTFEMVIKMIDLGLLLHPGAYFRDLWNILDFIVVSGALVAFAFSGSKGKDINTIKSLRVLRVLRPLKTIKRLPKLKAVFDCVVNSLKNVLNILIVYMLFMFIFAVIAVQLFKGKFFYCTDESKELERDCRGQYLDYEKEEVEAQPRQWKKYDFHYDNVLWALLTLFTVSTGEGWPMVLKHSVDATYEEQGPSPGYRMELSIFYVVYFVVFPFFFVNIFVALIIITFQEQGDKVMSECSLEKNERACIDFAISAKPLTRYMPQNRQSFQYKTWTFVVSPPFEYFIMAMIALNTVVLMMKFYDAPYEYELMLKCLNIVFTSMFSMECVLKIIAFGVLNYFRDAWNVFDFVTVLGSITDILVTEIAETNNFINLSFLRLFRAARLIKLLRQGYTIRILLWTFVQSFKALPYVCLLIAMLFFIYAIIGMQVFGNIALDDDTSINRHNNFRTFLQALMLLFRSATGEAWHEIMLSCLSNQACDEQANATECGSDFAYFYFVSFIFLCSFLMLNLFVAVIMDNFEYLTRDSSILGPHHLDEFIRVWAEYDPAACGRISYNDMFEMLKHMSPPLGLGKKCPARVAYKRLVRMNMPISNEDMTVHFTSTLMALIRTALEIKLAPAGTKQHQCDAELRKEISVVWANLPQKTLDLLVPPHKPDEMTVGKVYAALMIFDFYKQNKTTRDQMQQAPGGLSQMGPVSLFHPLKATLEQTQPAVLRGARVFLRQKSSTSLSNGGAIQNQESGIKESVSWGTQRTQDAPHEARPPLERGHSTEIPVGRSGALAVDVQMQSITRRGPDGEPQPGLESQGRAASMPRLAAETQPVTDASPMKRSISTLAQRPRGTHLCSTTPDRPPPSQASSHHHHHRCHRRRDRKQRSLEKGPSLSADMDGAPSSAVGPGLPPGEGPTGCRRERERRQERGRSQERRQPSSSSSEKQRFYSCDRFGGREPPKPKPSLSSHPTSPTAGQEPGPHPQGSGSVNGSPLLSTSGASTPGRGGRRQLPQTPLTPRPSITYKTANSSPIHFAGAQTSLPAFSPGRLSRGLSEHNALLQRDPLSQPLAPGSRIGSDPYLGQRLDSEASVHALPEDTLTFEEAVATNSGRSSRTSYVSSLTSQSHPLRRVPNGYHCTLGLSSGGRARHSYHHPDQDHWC
T1 sequence (P54284 whole entry partner): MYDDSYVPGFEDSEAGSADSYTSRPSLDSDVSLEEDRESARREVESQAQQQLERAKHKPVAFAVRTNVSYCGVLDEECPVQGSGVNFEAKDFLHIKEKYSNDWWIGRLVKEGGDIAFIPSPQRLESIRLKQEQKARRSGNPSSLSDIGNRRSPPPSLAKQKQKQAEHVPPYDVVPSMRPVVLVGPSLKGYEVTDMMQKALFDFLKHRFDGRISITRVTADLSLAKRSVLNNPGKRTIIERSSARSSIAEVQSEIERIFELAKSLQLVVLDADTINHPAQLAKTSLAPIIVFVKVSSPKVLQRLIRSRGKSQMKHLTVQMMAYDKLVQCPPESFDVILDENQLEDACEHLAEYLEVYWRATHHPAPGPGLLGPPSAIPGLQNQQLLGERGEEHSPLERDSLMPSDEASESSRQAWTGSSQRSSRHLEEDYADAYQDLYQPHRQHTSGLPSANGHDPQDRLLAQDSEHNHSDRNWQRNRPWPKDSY
T1 sequence (P54289 25-946 partner limits assumed): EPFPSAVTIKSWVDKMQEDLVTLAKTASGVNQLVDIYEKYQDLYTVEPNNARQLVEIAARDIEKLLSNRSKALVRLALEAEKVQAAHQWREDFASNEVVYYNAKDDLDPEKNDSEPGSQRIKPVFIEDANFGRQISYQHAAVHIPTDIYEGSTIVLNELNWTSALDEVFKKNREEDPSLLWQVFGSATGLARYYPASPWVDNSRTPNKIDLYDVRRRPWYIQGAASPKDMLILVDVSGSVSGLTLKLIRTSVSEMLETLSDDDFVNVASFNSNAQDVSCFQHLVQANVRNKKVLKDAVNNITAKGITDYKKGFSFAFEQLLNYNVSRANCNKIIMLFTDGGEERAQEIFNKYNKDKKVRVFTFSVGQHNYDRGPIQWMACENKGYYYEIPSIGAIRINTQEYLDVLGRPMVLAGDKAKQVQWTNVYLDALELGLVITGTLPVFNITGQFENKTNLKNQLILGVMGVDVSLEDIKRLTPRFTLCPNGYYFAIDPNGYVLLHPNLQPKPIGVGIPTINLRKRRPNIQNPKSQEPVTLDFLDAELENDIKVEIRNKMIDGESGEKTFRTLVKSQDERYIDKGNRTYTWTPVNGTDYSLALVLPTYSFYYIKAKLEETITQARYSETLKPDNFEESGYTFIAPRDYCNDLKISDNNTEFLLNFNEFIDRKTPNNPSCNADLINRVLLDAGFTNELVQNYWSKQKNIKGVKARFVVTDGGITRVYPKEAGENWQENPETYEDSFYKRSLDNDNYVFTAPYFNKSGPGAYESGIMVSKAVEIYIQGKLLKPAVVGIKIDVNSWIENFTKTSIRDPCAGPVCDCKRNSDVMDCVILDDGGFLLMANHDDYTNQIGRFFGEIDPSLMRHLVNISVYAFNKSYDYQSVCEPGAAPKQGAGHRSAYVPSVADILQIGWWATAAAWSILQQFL
T1 sequence (P54289 947-1103 partner limits assumed): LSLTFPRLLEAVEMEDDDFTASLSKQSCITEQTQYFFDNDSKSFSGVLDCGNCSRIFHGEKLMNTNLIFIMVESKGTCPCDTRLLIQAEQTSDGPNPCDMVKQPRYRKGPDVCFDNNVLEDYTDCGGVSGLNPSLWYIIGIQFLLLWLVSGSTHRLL

| IC50 [1] | IC50 [2] | SMILES | other results |
| --- | --- | --- | --- |
| 1390 nM |  | CC(C)(CCNC(=O)C1(N)CCCCC1)S(=O)(=O)c1cccc(C(F)(F)F)c1 [Compound 207, 1-amino-N-(3-methyl-3-((3-(trifluoromethyl)phenyl)sulfonyl)butyl)cyclohexanecarboxamide] |  |
| 3320 nM |  | Cc1c(C(=O)NCCC(C)(C)S(=O)(=O)c2cccc(C(F)(F)F)c2)sc2nc[nH]c(=O)c12 [Compound 210, 5-methyl-N-(3-methyl-3-((3-(trifluoromethyl)phenyl)sulfonyl)butyl)-4-oxo-3,4-dihydrothieno[2,3-d]pyrimidine-6-carboxamide] |  |
| 1420 nM |  | CC(C)(CCNC(=O)c1ccc(S(C)(=O)=O)cc1)S(=O)(=O)c1cccc(C(F)(F)F)c1 [Compound 191, N-(3-methyl-3-((3-(trifluoromethyl)phenyl)sulfonyl)butyl)-4-(methylsulfonyl)benzamide] |  |
| 8170 nM |  | CC(C)(CCNC(=O)[C@@H]1C[C@@H](O)CN1)S(=O)(=O)c1cccc(C(F)(F)F)c1 [Compound 217, (2S,4R)-4-hydroxy-N-(3-methyl-3-((3-(trifluoromethyl)phenyl)sulfonyl)butyl)pyrrolidine-2-carboxamide] |  |
| 8230 nM |  | CC(C)(CC(=O)NCCC(F)(F)F)S(=O)(=O)c1cccc(C(F)(F)F)c1 [Compound 151, 3-methyl-3-((3-(trifluoromethyl)phenyl)sulfonyl)-N-(3,3,3-trifluoropropyl)butanamide] |  |
|  | 2280 nM | CN1CCCCC1C(=O)NCc1ccc(S(=O)(=O)c2cccc(C(F)(F)F)c2)cc1 (centres unmarked) [Compound 84, 1-methyl-N-(4-((3-(trifluoromethyl)phenyl)sulfonyl)benzyl)piperidine-2-carboxamide] |  |
|  | 1120 nM | O=C(NCc1ccccc1S(=O)(=O)c1cccc(C(F)(F)F)c1)c1ccc(C(F)(F)F)nc1 [Compound 38] |  |
| 10000 nM |  | CC(C)(C(=O)Nc1ccc(Oc2ccncc2)cc1)S(=O)(=O)c1cccc(C(F)(F)F)c1 [Compound 143, 2-methyl-N-(4-(pyridin-4-yloxy)phenyl)-2-((3-(trifluoromethyl)phenyl)sulfonyl)propanamide] |  |
|  | 5540 nM | O=C(NCc1ccccc1S(=O)(=O)c1cccc(C(F)(F)F)c1)[C@@H]1CCCN1 [Compound 76, (S)-N-(2-((3-(trifluoromethyl)phenyl)sulfonyl)benzyl)pyrrolidine-2-carboxamide] |  |
|  | 2680 nM | O=C(CCC(F)(F)F)NCc1ccccc1S(=O)(=O)c1cccc(C(F)(F)F)c1 [Compound 55, 4,4,4-trifluoro-N-(2-((3-(trifluoromethyl)phenyl)sulfonyl)benzyl)butanamide] |  |
|  | 1040 nM | COc1cc(C(=O)NCc2ccccc2S(=O)(=O)c2cccc(C(F)(F)F)c2)cc(Cl)n1 [Compound 49, 2-chloro-6-methoxy-N-(2-((3-(trifluoromethyl)phenyl)sulfonyl)benzyl)isonicotinamide] |  |
|  | 1940 nM | CC1(C(=O)NCc2ccc(S(=O)(=O)c3cccc(C(F)(F)F)c3)cc2)CCCCN1 (centres unmarked) [Compound 85, 2-methyl-N-(4-((3-(trifluoromethyl)phenyl)sulfonyl)benzyl)piperidine-2-carboxamide] |  |
| 3110 nM |  | CC(C)(CCNC(=O)[C@H]1CCCCN1)S(=O)(=O)c1cccc(C(F)(F)F)c1 [Compound 195, (R)-N-(3-methyl-3-((3-(trifluoromethyl)phenyl)sulfonyl)butyl)piperidine-2-carboxamide] |  |
|  | 1390 nM | O=C(NCc1cc(S(=O)(=O)c2cccc(C(F)(F)F)c2)ccn1)c1ccnc(C(F)(F)F)n1 [Compound 113, 2-(trifluoromethyl)-N-((4-((3-(trifluoromethyl)phenyl)sulfonyl)pyridin-2-yl)methyl)pyrimidine-4-carboxamide] |  |
| 1680 nM |  | CC(C)(CCNC(=O)Cc1cccc(S(C)(=O)=O)c1)S(=O)(=O)c1cccc(C(F)(F)F)c1 [Compound 193, N-(3-methyl-3-((3-(trifluoromethyl)phenyl)sulfonyl)butyl)-2-(3-(methylsulfonyl)phenyl)acetamide] |  |
| 6100 nM |  | CN1CCCCC1C(=O)NCCC(C)(C)S(=O)(=O)c1cccc(C(F)(F)F)c1 (centres unmarked) [Compound 221, 1-methyl-N-(3-methyl-3-((3-(trifluoromethyl)phenyl)sulfonyl)butyl)piperidine-2-carboxamide] |  |

| IC50 [1] | IC50 [2] | SMILES | other results |
| --- | --- | --- | --- |
|  | 1410 nM | O=C(NCc1ccc(S(=O)(=O)c2cccc(C(F)(F)F)c2)cn1)c1ccnc(C(F)(F)F)c1 [Compound 102, 2-(trifluoromethyl)-N-((5-((3-(trifluoromethyl)phenyl)sulfonyl)pyridin-2-yl)methyl)isonicotinamide] |  |
|  | 7000 nM | CS(=O)(=O)c1nc(C(F)(F)F)ccc1C(=O)NCc1ccccc1S(=O)(=O)c1cccc(C(F)(F)F)c1 [Compound 40] |  |
| 9060 nM |  | Cc1cncc(C(=O)NCC(C)(C)S(=O)(=O)c2cccc(C(F)(F)F)c2)c1 [Compound 173, 5-methyl-N-(2-methyl-2-((3-(trifluoromethyl)phenyl)sulfonyl)propyl)nicotinamide] |  |
| 2630 nM |  | CCOc1ncccc1C(=O)NCC(C)(C)S(=O)(=O)c1cccc(C(F)(F)F)c1 [Compound 162, 2-ethoxy-N-(2-methyl-2-((3-(trifluoromethyl)phenyl)sulfonyl)propyl)nicotinamide] |  |
| 3770 nM |  | CC1(C(=O)NCCC(C)(C)S(=O)(=O)c2cccc(C(F)(F)F)c2)CCCCN1 (centres unmarked) [Compound 222, 2-methyl-N-(3-methyl-3-((3-(trifluoromethyl)phenyl)sulfonyl)butyl)piperidine-2-carboxamide] |  |
|  |  | CC(C)(C(=O)NCCC(F)(F)F)S(=O)(=O)c1cccc(C(F)(F)F)c1 [Compound 125, 2-methyl-2-((3-(trifluoromethyl)phenyl)sulfonyl)-N-(3,3,3-trifluoropropyl)propanamide] | IC50 (FLIPR data CaV2.2 (nM), Table 5): 10000 nM |
| 10000 nM |  | CC(C)(CNC(=O)c1ccnc(F)c1)S(=O)(=O)c1cccc(C(F)(F)F)c1 [Compound 177, 2-fluoro-N-(2-methyl-2-((3-(trifluoromethyl)phenyl)sulfonyl)propyl)isonicotinamide] |  |
|  | 2510 nM | O=C(CCC(F)(F)F)NCc1ccc(S(=O)(=O)c2cccc(C(F)(F)F)c2)cn1 [Compound 105, 4,4,4-trifluoro-N-((5-((3-(trifluoromethyl)phenyl)sulfonyl)pyridin-2-yl)methyl)butanamide] |  |
| 10000 nM |  | CC(C)(N)C(=O)NCCC(C)(C)S(=O)(=O)c1cccc(C(F)(F)F)c1 [Compound 201, 2-amino-2-methyl-N-(3-methyl-3-((3-(trifluoromethyl)phenyl)sulfonyl)butyl)propanamide] |  |
| 3430 nM |  | CC(C)(CCNC(=O)[C@H]1CCCN1)S(=O)(=O)c1cccc(C(F)(F)F)c1 [Compound 220, (R)-N-(3-methyl-3-((3-(trifluoromethyl)phenyl)sulfonyl)butyl)pyrrolidine-2-carboxamide] |  |
| 1050 nM |  | CC(C)(CCNC(=O)[C@H](N)c1ccccc1)S(=O)(=O)c1cccc(C(F)(F)F)c1 [Compound 200] |  |
| 360 nM |  | CC(C)(CCNC(=O)CC1(N)CCCCC1)S(=O)(=O)c1cccc(C(F)(F)F)c1 [Compound 223, 2-(1-aminocyclohexyl)-N-(3-methyl-3-((3-(trifluoromethyl)phenyl)sulfonyl)butyl)acetamide] |  |
| 1120 nM |  | CC(C)(CCNC(=O)c1ccc(C(F)(F)F)cc1S(C)(=O)=O)S(=O)(=O)c1cc(F)cc(C(F)(F)F)c1 [Compound 213, N-(3-((3-fluoro-5-(trifluoromethyl)phenyl)sulfonyl)-3-methylbutyl)-2-(methylsulfonyl)-4-(trifluoromethyl)benzamide] |  |
| 440 nM |  | COc1cc(OC)cc(C(O)CNC(=O)C(C)(C)S(=O)(=O)c2cccc(C(F)(F)F)c2)c1 (centres unmarked) [Compound 142, N-(2-(3,5-dimethoxyphenyl)-2-hydroxyethyl)-2-methyl-2-((3-(trifluoromethyl)phenyl)sulfonyl)propanamide] |  |
| 9130 nM |  | CC(C)(CCNC(=O)C1(N)CCS(=O)(=O)CC1)S(=O)(=O)c1cccc(C(F)(F)F)c1 [Compound 198, 4-amino-N-(3-methyl-3-((3-(trifluoromethyl)phenyl)sulfonyl)butyl)tetrahydro-2H-thiopyran-4-carboxamide 1,1-dioxide] |  |

| SMILES | IC50 [1] | IC50 [2] | other results |
| --- | --- | --- | --- |
| CC(C)(C)Oc1ccc(CNC(=O)C(C)(C)S(=O)(=O)c2cccc(C(F)(F)F)c2)cc1 [Compound 144, N-(4-(tert-butoxy)benzyl)-2-methyl-2-((3-(trifluoromethyl)phenyl)sulfonyl)propanamide] | 360 nM |  |  |

Reference: patent US20140113898A1, “BISARYLSULFONE AND DIALKYLARYLSULFONE COMPOUNDS AS CALCIUM CHANNEL BLOCKERS” (Zalicus Pharmaceuticals Ltd., priority 2010, published 2014)
